Data taken from US8222416B2, “Azaindole glucokinase activators” (Hoffmann-La Roche Inc., priority 2009, dated 2012).

target: T1, Recombinant human liver GK1 (GST-GK) (Homo sapiens, UniProt P35557); assay: In vitro glucokinase activity assay (G6PDH-coupled, NADH, OD340); assay type: biochemical; settings: concentration of activator that produced a 50% increase in the activity of GK; 5 mM D-glucose, 30° C.
T1 construct: made in house; host or cells: E. coli
T1 sequence (P35557 1-466 isoform P35557-2): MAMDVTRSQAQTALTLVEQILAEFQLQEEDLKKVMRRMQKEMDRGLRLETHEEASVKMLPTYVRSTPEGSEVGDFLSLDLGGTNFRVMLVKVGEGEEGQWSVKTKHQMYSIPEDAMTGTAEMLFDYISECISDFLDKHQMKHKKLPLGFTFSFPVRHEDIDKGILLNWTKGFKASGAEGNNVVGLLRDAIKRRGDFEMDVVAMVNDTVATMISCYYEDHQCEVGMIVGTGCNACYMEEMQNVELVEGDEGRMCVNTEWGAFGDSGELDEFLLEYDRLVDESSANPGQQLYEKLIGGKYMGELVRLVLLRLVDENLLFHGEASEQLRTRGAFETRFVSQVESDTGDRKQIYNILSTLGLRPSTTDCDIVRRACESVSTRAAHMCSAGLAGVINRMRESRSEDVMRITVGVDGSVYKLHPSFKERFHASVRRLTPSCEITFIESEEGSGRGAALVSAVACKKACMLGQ
Protocol: Glucokinase In Vitro Assay Protocol: Glucokinase (GK) was assayed by coupling the production of glucose-6-phosphate to the generation of NADH with glucose-6-phosphate dehydrogenase (G6PDH, 0.75-1 kunits/mg; Boehringer Mannheim, Indianapolis, Ind.) from Leuconostoc mesenteroides as the coupling enzyme (Scheme 2).
Recombinant human liver GK1 was expressed in E. coli as a glutathione S-transferase fusion protein (GST-GK) [Liang et al, 1995] and was purified by chromatography over a glutathione-Sepharose 4B affinity column using the procedure provided by the manufacturer (Amersham Pharmacia Biotech, Piscataway, N.J.).
The assay was conducted at 30° C. in a flat bottom 96-well tissue culture plate from Costar (Cambridge, Mass.) with a final incubation volume of 120 μL. The incubation reaction contained the following: 25 mM Hepes buffer (pH 7.1), 25 mM KCl, 5 mM D-glucose, 1 mM ATP, 1.8 mM NAD, 2 mM MgCl2, 1 μM sorbitol-6-phosphate, 1 mM dithiothreitol, test drug or 10% dimethylsulfoxide, ˜7 units/ml G6PDH, and GK (see below). All organic reagents were >98% pure and were from Boehringer Mannheim with the exceptions of D-glucose and Hepes which were from Sigma Chemical Co, St Louis, Mo. Test compounds were dissolved in dimethylsulfoxide and were added to the incubation reaction minus GST-GK in a volume of 12 μL to yield a final dimethylsulfoxide concentration of 10%. This mix was pre-incubated in the temperature controlled chamber of a SPECTRAmax 250 microplate spectrophotometer (Molecular Devices Corporation, Sunnyvale, Calif.) for 10 minutes to allow temperature equilibrium and then the reaction was started by the addition of 20 μL GST-GK.
After addition of enzyme, the increase in optical density (OD) at 340 nm was monitored spectrophotometrically to determine the rate of change (OD340 per min). The GK activity (OD340/min) in control wells (10% dimethylsulfoxide minus GK activators) was compared with the activity in wells containing test GK activators, and the concentration of activator that produced a 50% increase in the activity of GK, i.e., the SC1.5, was calculated.

SMILES	SC1.5
CS(=O)(=O)c1ccc(C(CC2CCC2)c2cc3cc(F)cnc3[nH]2)cc1 (stereo not shown) [Example 47, 2-[2-Cyclobutyl-1-(4-methanesulfonyl-phenyl)-ethyl]-5-fluoro-1H-pyrrolo[2,3-b]pyridine]	0.415 µM
CCOC(CC1CCCC1)(c1ccc(S(C)(=O)=O)cc1)c1cc2cccnc2[nH]1 (single isomer, unassigned) [Example 87, 2-[2-Cyclopentyl-1-ethoxy-1-(4-methanesulfonyl-phenyl)-ethyl]-1H-pyrrolo[2,3-b]pyridine]	11.0 µM
COC(=O)c1cnc2[nH]c([C@H](CC3CCCC3)c3ccc(S(C)(=O)=O)cc3)cc2c1 (single isomer, unassigned) [Example 55]	0.512 µM
COc1cnc2[nH]c(C(O)(CC3CCC3)c3ccc(S(C)(=O)=O)c(C(F)(F)F)c3)cc2c1 (stereo not shown) [Example 72, 2-Cyclobutyl-1-(4-methanesulfonyl-3-trifluoromethyl-phenyl)-1-(5-methoxy-1H-pyrrolo[2,3-b]pyridin-2-yl)-ethanol]	13.3 µM
CS(=O)(=O)c1ccc(C(CC2CCCC2)c2cc3cc(C(=O)N4CCOCC4)cnc3[nH]2)cc1 (stereo not shown) [Example 4, {2-[2-Cyclopentyl-1-(4-methanesulfonyl-phenyl)-ethyl]-1H-pyrrolo[2,3-b]pyridin-5-yl}-morpholin-4-yl-methanone]	10.5 µM
COc1cnc2[nH]c(/C(=C/C3CCCO3)c3ccc(S(C)(=O)=O)cc3)cc2c1 (stereo not shown) [Example 21, 2-[(E)-1-(4-Methanesulfonyl-phenyl)-2-(tetrahydro-furan-2-yl)-vinyl]-5-methoxy-1H-pyrrolo[2,3-b]pyridine]	0.821 µM
CS(=O)(=O)Nc1ccc(C(CC2CCCC2)c2cc3cccnc3[nH]2)cc1 (stereo not shown) [Example 75, N-{4-[2-Cyclopentyl-1-(1H-pyrrolo[2,3-b]pyridin-2-yl)-ethyl]-phenyl}-methanesulfonamide]	2.5 µM
CS(=O)(=O)c1ccc(C(CC2CCCC2)c2cc3cc(CC(O)CO)cnc3[nH]2)cc1 (stereo not shown) [Example 11, 3-{2-[2-Cyclopentyl-1-(4-methanesulfonyl-phenyl)-ethyl]-1H-pyrrolo[2,3-b]pyridin-5-yl}-propane-1,2-diol]	7.3 µM
COc1cnc2[nH]c([C@H](CC3CCCCC3)c3ccc(S(C)(=O)=O)cc3)cc2c1 (single isomer, unassigned) [Example 10]	0.218 µM
CS(=O)(=O)c1ccc(C(CC2CCC2)c2cc3cccnc3[nH]2)cc1C(F)(F)F (stereo not shown) [Example 77, 2-[2-Cyclobutyl-1-(4-methanesulfonyl-3-trifluoromethyl-phenyl)-ethyl]-1H-pyrrolo[2,3-b]pyridine]	0.692 µM
CC(C)(C)CC(c1ccc(S(C)(=O)=O)cc1)c1cc2cccnc2[nH]1 (stereo not shown) [Example 74, 2-[1-(4-Methanesulfonyl-phenyl)-3,3-dimethyl-butyl]-1H-pyrrolo[2,3-b]pyridine]	20.6 µM
COc1cnc2[nH]c(C(CC3CCCO3)c3ccc(S(C)(=O)=O)cc3)cc2c1 (single isomer, unassigned) [Example 23, 2-[1-(4-Methanesulfonyl-phenyl)-2-(tetrahydro-furan-2-yl)-ethyl]-5-methoxy-1H-pyrrolo[2,3-b]pyridine]	21.9 µM
CNC(=O)c1cnc2[nH]c([C@H](CC3CCCC3)c3ccc(S(C)(=O)=O)cc3)cc2c1 [Example 6, 2-[2-Cyclopentyl-1(R)-(4-methanesulfonyl-phenyl)-ethyl]-1H-pyrrolo[2,3-b]pyridin-5-carboxylic acid methylamide]	1.0 µM
CN(C)C(=O)Cc1cnc2[nH]c(C(CC3CCCC3)c3ccc(S(C)(=O)=O)cc3)cc2c1 (stereo not shown) [Example 39, 2-{2-[2-Cyclopentyl-1-(4-methanesulfonyl-phenyl)-ethyl]-1H-pyrrolo[2,3-b]pyridin-5-yl}-N,N-dimethyl-acetamide]	9.1 µM
Cc1cc(C)cc(C(CC2CCCC2)c2cc3cccnc3[nH]2)c1 (stereo not shown) [Example 66, 2-[2-Cyclopentyl-1-(3.5-dimethyl-phenyl)-ethyl]-1H-pyrrolo[2,3-b]pyridine]	4.2 µM
CC(C)(O)c1ccc([C@@H](CC2CCCC2)c2cc3cc(C(=O)O)cnc3[nH]2)cc1F (single isomer, unassigned) [Example 58]	9.5 µM
CS(=O)(=O)c1ccc(C(O)(CC2CCCC2)c2cc3cccnc3[nH]2)cc1 (single isomer, unassigned) [Example 86, 2-Cyclopentyl-1-(4-methanesulfonyl-phenyl)-1-(1H-pyrrolo[2,3-b]pyridin-2-yl)-ethanol]	0.857 µM
CNC(=O)c1cnc2[nH]c(C(CC(C)C)c3ccc(S(C)(=O)=O)cc3)cc2c1 (stereo not shown) [Example 2, 2-[1-(4-Methanesulfonyl-phenyl)-3-methyl-butyl]-1H-pyrrolo[2,3-b]pyridin-5-carboxylic acid methylamide]	11.3 µM
CCOC(=O)C(C)(C)Oc1cnc2[nH]c(C(CC3CCCC3)c3ccc(S(C)(=O)=O)cc3)cc2c1 (stereo not shown) [Example 26, 2-{2-[2-Cyclopentyl-1-(4-methanesulfonyl-phenyl)-ethyl]-1H-pyrrolo[2,3-b]pyridin-5-yloxy}-2-methyl-propionic acid ethyl ester]	2.3 µM
CS(=O)(=O)c1ccc(C(CC2CCCC2)c2cc3cc(CCO)cnc3[nH]2)cc1 (stereo not shown) [Example 36, 2-{2-[2-Cyclopentyl-1-(4-methanesulfonyl-phenyl)-ethyl]-1H-pyrrolo[2,3-b]pyridin-5-yl}-ethanol]	3.4 µM

Results, then the molecule that gave them:

SC1.5	SMILES
2.0 µM	CS(=O)(=O)c1ccc(C(CC2CCCC2)c2cc3cc(C(F)(F)F)cnc3[nH]2)cc1 (stereo not shown) [Example 126, 2-[2-Cyclopentyl-1-(4-methanesulfonyl-phenyl)-ethyl]-5-trifluoromethyl-1H-pyrrolo[2,3-b]pyridine]
0.368 µM	CC(C)CC(c1ccc(C(C)(C)O)c(F)c1)c1cc2cc(F)cnc2[nH]1 (stereo not shown) [Example 105, 2-{2-Fluoro-4-[1-(5-fluoro-1H-pyrrolo[2,3-b]pyridin-2-yl)-3-methyl-butyl]-phenyl}-propan-2-ol]
0.178 µM	O=S(=O)(CCO)c1ccc(C(CC2CCCC2)c2cc3cc(F)cnc3[nH]2)cc1 (stereo not shown) [Example 88, 2-{4-[2-Cyclopentyl-1-(5-fluoro-1H-pyrrolo[2,3-b]pyridin-2-yl)-ethyl]-benzenesulfonyl}-ethanol]
0.85 µM	Cc1cnc2[nH]c(C(CC3CCCC3)c3ccc(S(C)(=O)=O)cc3)cc2c1 (stereo not shown) [Example 128, 2-[2-Cyclopentyl-1-(4-methanesulfonyl-phenyl)-ethyl]-5-methyl-1H-pyrrolo[2,3-b]pyridine]
0.144 µM	CC(C)(O)c1ccc([C@@H](CC2CCCC2)c2cc3cccnc3[nH]2)cc1F (single isomer, unassigned) [Example 96]
7.4 µM	CS(=O)(=O)c1ccc(C(O)(CC2CCC2)c2cc3cccnc3[nH]2)cc1 (stereo not shown) [Example 115, 2-Cyclobutyl-1-(4-methanesulfonyl-phenyl)-1-(1H-pyrrolo[2,3-]pyridin-2-yl)-ethanol]
25.0 µM	CCOc1cccc(C(CC(C)C)c2cc3cccnc3[nH]2)c1 (stereo not shown) [Example 133, 2-(1-(3-Ethoxy-phenyl)-3-methyl-butyl)-1H-pyrrolo[2,3-b]pyridine]
0.832 µM	O=S(=O)(CCO)c1ccc(C(CC2CCCC2)c2cc3cccnc3[nH]2)cc1 (stereo not shown) [Example 91]
9.4 µM	CN(C)CC(=O)Nc1cnc2[nH]c(C(CC3CCCC3)c3ccc(S(C)(=O)=O)cc3)cc2c1 (stereo not shown) [Example 107, N-{2-[2-Cyclopentyl-1-(4-methanesulfonyl-phenyl)-ethyl]-1H-pyrrolo[2,3-b]pyridin-5-yl}-2-dimethylamino-acetamide]
0.071 µM	CS(=O)(=O)c1ccc(C(CC2CCCC2)c2cc3cc(F)cnc3[nH]2)cc1 (stereo not shown) [Example 117, 2-[2-Cyclopentyl-1-(4-methanesulfonyl-phenyl)-ethyl]-5-fluoro-1H-pyrrolo[2,3-b]pyridine]
0.67 µM	CC(C)(O)c1ccc([C@@H](CC2CCOCC2)c2cc3cc(F)cnc3[nH]2)cc1F (single isomer, unassigned) [Example 98]
